We go through nine compounds from paper PMC8358987 (Clinical cancer research : an official journal of the …, 2021).

Each structure is given as a SMILES string.

In series [1] the target is T1, OATP1B1 (Homo sapiens, UniProt Q9Y6L6).
T1 sequence (Q9Y6L6 1-691): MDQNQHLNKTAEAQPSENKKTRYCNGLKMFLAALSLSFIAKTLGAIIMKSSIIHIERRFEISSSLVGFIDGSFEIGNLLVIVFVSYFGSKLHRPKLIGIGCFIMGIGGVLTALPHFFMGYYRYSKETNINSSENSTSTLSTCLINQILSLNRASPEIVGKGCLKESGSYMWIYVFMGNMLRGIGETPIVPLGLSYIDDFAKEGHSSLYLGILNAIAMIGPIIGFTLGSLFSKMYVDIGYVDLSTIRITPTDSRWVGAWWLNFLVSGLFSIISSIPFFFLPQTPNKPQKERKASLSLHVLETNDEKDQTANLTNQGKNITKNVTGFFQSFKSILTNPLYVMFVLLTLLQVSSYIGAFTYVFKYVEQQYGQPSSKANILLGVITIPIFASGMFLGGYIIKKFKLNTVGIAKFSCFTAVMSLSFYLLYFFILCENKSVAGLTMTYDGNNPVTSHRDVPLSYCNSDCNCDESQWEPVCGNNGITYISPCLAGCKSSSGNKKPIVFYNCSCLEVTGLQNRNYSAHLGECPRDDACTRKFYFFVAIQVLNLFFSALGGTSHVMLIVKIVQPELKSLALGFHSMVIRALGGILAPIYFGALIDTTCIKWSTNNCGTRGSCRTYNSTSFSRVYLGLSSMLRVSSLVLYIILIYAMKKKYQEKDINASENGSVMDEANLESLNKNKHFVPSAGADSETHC
It counts as cell-based. The conditions noted are these: for Reduction of OATP1B1 function: overexpressing HEK293 cells, 10 μM TKI screen; for Mechanism of OATP1B1 inhibition: kinetic analysis (Dixon plot) and pre-incubation effects.

The target of a further series is LYN kinase (Homo sapiens, UniProt P07948). Description: Kinase hotspot assay against LYN kinase. The series is classed as biochemical. The following applies: for Inhibition of LYN kinase activity: 10-dose curve from 50 μM, 10 μM ATP.
LYN kinase, sequence (P07948 whole entry): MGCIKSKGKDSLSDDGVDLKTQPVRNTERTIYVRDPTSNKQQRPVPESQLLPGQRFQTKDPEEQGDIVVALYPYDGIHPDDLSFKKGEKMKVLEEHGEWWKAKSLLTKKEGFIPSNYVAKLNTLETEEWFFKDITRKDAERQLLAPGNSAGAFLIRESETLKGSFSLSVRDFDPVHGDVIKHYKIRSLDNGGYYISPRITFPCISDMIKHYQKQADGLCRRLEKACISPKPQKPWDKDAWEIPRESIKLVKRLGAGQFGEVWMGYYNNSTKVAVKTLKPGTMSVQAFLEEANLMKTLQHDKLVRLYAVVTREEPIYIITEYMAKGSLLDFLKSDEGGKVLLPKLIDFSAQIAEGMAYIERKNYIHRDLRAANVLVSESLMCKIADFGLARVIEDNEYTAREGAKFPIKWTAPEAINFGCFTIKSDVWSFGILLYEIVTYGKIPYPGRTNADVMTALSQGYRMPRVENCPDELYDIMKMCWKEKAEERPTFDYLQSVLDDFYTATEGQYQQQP
The conditions of series [2]: cited from earlier work.
Series [3] has as its target T1, OATP1B1. Description: Cellular accumulation of 3H-lapatinib. The series is classed as in vitro ADME. The following applies: 3H-lapatinib 1 μM.
For series [4], the system named is OATP1B1. The conditions noted are these: ref prescribing information; cited from earlier work.
Series [5] concerns the target T1, OATP1B1. Description: OATP1B1-dependent uptake of 3H-EβG in human plateable hepatocytes. It counts as cell-based. The conditions noted are these: 10 μM, 15 min pre-incubation; 3H-EβG 1 μM, 2 minutes.
In series [6] the test system is OATP1B1. Description: Mass spectrometric analysis of OATP1B1 tyrosine phosphorylation. The conditions noted are these: 10 μM nilotinib 15 minutes. It counts as cell-based, human.
Series [7] deals with OATP1B1. Description: Surface expression of OATP1B1 by biotinylation. It counts as cell-based, human. The conditions noted are these: 10 μM nilotinib.
A further series deals with PKC. The following applies: concentrations of nilotinib used in the study; cited from earlier work.

With `CNC(=O)c1ccccc1Sc1ccc2c(/C=C/c3ccccn3)n[nH]c2c1` [axitinib], the “Reduction of OATP1B1 function” value on OATP1B1 [1] is more than 75%.

One may read the IC50 as the point on the concentration scale where inhibition reaches its midpoint. Lower therefore signals higher potency. In the case of `COc1cc2nccc(Oc3ccc(NC(=O)C4(C(=O)Nc5ccc(F)cc5)CC4)cc3)c2cc1OC` [cabozantinib], the “Reduction of OATP1B1 function” value on OATP1B1 [1] is listed as more than 75%. The IC50 against LYN kinase fell in the range of 15 to 685 nM.

Turning to `CC(C)(C)c1nc(-c2cccc(NS(=O)(=O)c3c(F)cccc3F)c2F)c(-c2ccnc(N)n2)s1` [dabrafenib], the “Reduction of OATP1B1 function” value at OATP1B1 [1] is listed as more than 75%. In addition, the “Effect on systemic concentrations of the OATP1B1 substrate rosuvastatin” value in series [2] was “increase the systemic concentrations”.

As for `CS(=O)(=O)CCNCc1ccc(-c2ccc3ncnc(Nc4ccc(OCc5cccc(F)c5)c(Cl)c4)c3c2)o1` [lapatinib], the OATP1B1 substrate status entry at OATP1B1 [3] is “transported substrate of OATP1B1”. Further, the “OATP1B1 substrate/inhibitor status per prescribing information” value with OATP1B1 [4] is reported as “can reduce OATP1B1 function”. In addition, the “Inhibition of LYN kinase activity” value on LYN kinase is on record as “did not inhibit”.

In the case of `O=C(Nc1cnn2ccc(N3CCC[C@@H]3c3cc(F)ccc3F)nc12)N1CC[C@H](O)C1` [larotrectinib], the “OATP1B1 substrate/inhibitor status per prescribing information” value in the series on OATP1B1 [4] is given as “neither a substrate nor an inhibitor of OATP1B1”.

In the case of `Cc1cn(-c2cc(NC(=O)c3ccc(C)c(Nc4nccc(-c5cccnc5)n4)c3)cc(C(F)(F)F)c2)cn1` [nilotinib], the “Effect on OATP1B1-dependent transport ex vivo in human hepatocytes” value at OATP1B1 [5] is “reduces OATP1B1-dependent transport”. On OATP1B1 [1], the “Mechanism of OATP1B1 inhibition” value is recorded as “predominantly non-competitive” and the “Reduction of OATP1B1 function” value is reported as more than 75%. The “Effect on overall tyrosine phosphorylation of OATP1B1” value in the series with OATP1B1 [6] (overexpressing HEK293 cells) is reported as “no significant effect”. For the same compound, the “Effect on OATP1B1 phosphorylation at Y645” value with OATP1B1 [6] (P<0.05) is reported as “significantly reduced”. Also, the “Effect on OATP1B1 phosphorylation of Y640 alone” value with OATP1B1 [6] (trend, P = 0.11) was “not significantly reduced”. The “Effect on membrane surface expression of OATP1B1” value in the series on OATP1B1 [7] is “not associated with significantly reduced membrane surface expression”. Also, in the series with PKC, the “Effect on PKC activity” value is listed as “do not affect PKC activity”.

With `Cc1ccc(Nc2nccc(N(C)c3ccc4c(C)n(C)nc4c3)n2)cc1S(N)(=O)=O` [pazopanib], the “Effect on systemic concentrations of the OATP1B1 substrate rosuvastatin” value in series [2] is reported as “increase the systemic concentrations”.

Regarding `CNC(=O)c1cc(Oc2ccc(NC(=O)Nc3ccc(Cl)c(C(F)(F)F)c3)cc2)ccn1` [sorafenib], the “Reduction of OATP1B1 function” value at OATP1B1 [1] is on record as more than 75%.

With `CC(=O)Nc1cccc(-n2c(=O)n(C3CC3)c(=O)c3c(Nc4ccc(I)cc4F)n(C)c(=O)c(C)c32)c1` [trametinib], the “Mechanism of OATP1B1 inhibition” value on OATP1B1 [1] is recorded as “competitive”. Further, the “Inhibition of LYN kinase activity” value at LYN kinase is given as “did not inhibit”.
